The values that follow come from US20050245543A1, “Histamine-3 receptor antagonists” (Pfizer Inc, priority 2004, published 2005).

Series [1] concerns the target T1, rat histamine H3 receptors (Rattus norvegicus, UniProt Q9QYN8).
T1 construct: Frozen rat frontal brain or frozen human post-mortem frontal brain is homogenized; from tissue; host or cells: rat frontal brain membranes
Description: Rat H3 binding (3H-N-methylhistamine displacement, rat frontal brain membranes). The conditions noted are these: radioligand 1 nM 3H-N-methylhistamine, 1 hour incubation. The protocol:
The in vitro affinity of the compounds in the present invention at the rat or human histamine H3 receptors can be determined according to the following procedure. Frozen rat frontal brain or frozen human post-mortem frontal brain is homogenized in 20 volumes of cold 50 mM Tris HCl containing 2 mM MgCl2 (pH to 7.4 at 4 degrees C.). The homogenate is then centrifuged at 45,000 G for 10 minutes. The supernatant is decanted and the membrane pellet re-suspended by Polytron in cold 50 mM Tris HCl containing 2 mM MgCl2 (pH to 7.4 at 4 degrees C.) and centrifuged again. The final pellet is re-suspended in 50 mM Tris HCl containing 2 mM MgCl2 (pH to 7.4 at 25 degrees C.) at a concentration of 12 mg/mL. Dilutions of compounds are made in 10% DMSO/50 mM Tris buffer (pH 7.4) (at 10×final concentration, so that the final DMSO concentration is 1%). Incubations are initiated by the addition of membranes (200 microliters) to 96 well V-bottom polypropylene plates containing 25 microliters of drug dilutions and 25 microliters of radioligand (1 nM final concentration ^3H—N-methylhistamine). After a 1 hour incubation, assay samples are rapidly filtered through Whatman GF/B filters and rinsed with ice-cold 50 mM Tris buffer (pH 7.4) using a Skatron cell harvester. Radioactivity is quantified using a BetaPlate scintillation counter.

Counter-ions that a name gives are not always drawn.

T1 sequence (Q9QYN8 whole entry): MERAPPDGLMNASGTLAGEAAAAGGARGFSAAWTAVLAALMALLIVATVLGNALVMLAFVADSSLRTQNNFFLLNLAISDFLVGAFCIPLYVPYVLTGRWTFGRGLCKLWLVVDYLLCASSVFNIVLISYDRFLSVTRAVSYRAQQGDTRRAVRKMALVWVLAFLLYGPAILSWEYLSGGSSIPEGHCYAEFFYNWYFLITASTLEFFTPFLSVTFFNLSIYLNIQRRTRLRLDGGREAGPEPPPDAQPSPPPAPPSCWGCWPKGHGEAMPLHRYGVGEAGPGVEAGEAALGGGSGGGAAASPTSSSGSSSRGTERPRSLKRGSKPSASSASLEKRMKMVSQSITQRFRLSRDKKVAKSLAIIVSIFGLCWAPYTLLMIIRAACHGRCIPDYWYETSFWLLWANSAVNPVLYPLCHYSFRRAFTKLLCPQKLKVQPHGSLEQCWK

Usually melting point stands for the temperature of the solid-liquid transition. In turn, `Cc1cc(C2CCCN2C)ccc1-c1ccc(CN2CCCCC2)cc1` (stereo not drawn) (as salt: HCl) [Example 79, 1-[2′-Methyl-4′-(1-methylpyrrolidin-2-yl)-biphenyl-4-ylmethyl]-piperidine] registered a melting point of 237.1 to 240 °C.

The molecule `CC(c1ccc(-c2ccc(-c3cncnc3)cc2F)cc1)N1CCCC1` (stereo not drawn) (as salt: HCl) [Example 94, 5-[2-Fluoro-4′-(1-pyrrolidin-1-ylethyl)-biphenyl-4-yl]-pyrimidine] displayed a melting point of 179.9 to 181.3 °C.

`Cc1cc(C2CCCN2C)ccc1-c1ccc(CNCc2ccc(Cl)cc2)cc1` (stereo not drawn) (as salt: hydrochloride) [Example 96, (4-Chlorobenzyl)-[2′-methyl-4′-(1-methylpyrrolidin-2-yl)-biphenyl-4-ylmethyl]-amine] yielded a melting point of 238.2 to 239.3 °C.

Usually Ki stands for a measure of affinity in units of concentration, obtained from inhibition or displacement. Higher therefore signals a looser hold on the target. With `CC(c1ccc(-c2ccc(-c3ccncc3)cc2)cc1)N1CCCC1` (racemic) [Example 1, (R)-(±)-4-[4′-(1-Pyrrolidin-1-ylethyl)-biphenyl-4-yl]-pyridine], the affinity in series [1] corresponds to a Ki of 39.4 nM.

`CC(c1ccc(-c2ccc(-c3cncnc3)cc2)cc1)N1CCCC1` (racemic) [Example 6, (±)-5-[4′-(1-Pyrrolidin-1-ylethyl)-biphenyl-4-yl]-pyrimidine]: in series [1], the affinity corresponds to a Ki of 61.8 nM.

In series [1], `CC(c1ccc(-c2ccc(-c3cncnc3)cc2)cc1)N1CCCC1` (racemic) [Example 7, (R)-(±)-5-[4′-(1-Pyrrolidin-1-ylethyl)-biphenyl-4-yl]-pyrimidine] registered a Ki of 22.7 nM.

As to `CC(c1ccc(-c2ccc(C3CCNCC3)cc2)cc1)N1CCCC1` (racemic) [Example 72, (R)-(±)-4-[4′-(1-Pyrrolidin-1-ylethyl)-biphenyl-4-yl]-piperidine], the Ki in series [1] was 3.5 nM. This Ki lies about 6.5-fold lower than the previous one.

With `CC(c1ccc(-c2ccc(C3CCNCC3)cc2)cc1)N1CCCC1` (racemic) [Example 74, (±)-4-[4′-(1-Pyrrolidin-1-yl-ethyl)-biphenyl-4-yl]-piperidine], the inhibition constant (Ki) in series [1] is 10 nM.

As to `C[C@@H](c1ccc(-c2ccc(-c3ccncc3)cc2)cc1)N1CCCC1` [Example 2, (S)-(−)-4-[4′-(1-Pyrrolidin-1-ylethyl)-biphenyl-4-yl]-pyridine], the affinity in series [1] corresponds to a Ki of 137 nM.

On to `C[C@H](c1ccc(-c2ccc(-c3cccnc3)cc2)cc1)N1CCCC1` [Example 4], for which the Ki in series [1] turned out to be 35.8 nM.

In series [1], `COc1ncc(-c2ccc(-c3ccc([C@@H](C)N4CCCC4)cc3)cc2)c(OC)n1` [Example 5, (R)-2,4-Dimethoxy-5-[4′-(1-pyrrolidin-1-ylethyl)-biphenyl-4-yl]-pyrimidine] came in with a Ki of 45 nM.

For the molecule `CC(c1ccc(-c2ccc(-c3cccnc3)cc2)cc1)N1CCCC1` (stereo not drawn) [Example 9, 3-[4′-(1-Pyrrolidin-1-ylethyl)-biphenyl-4-yl]-pyridine], the affinity in series [1] corresponds to a Ki of 50 nM.

Take `CC(c1ccc(-c2ccc(-c3cncnc3)cc2)cc1)N1CCCC1` (stereo not drawn) [Example 20, 5-[4′-(1-Pyrrolidin-1-ylethyl)-biphenyl-4-yl]-pyrimidine]: the affinity in series [1], expressed as Ki, was 25.2 nM.

`CC(c1ccc(-c2ccc(-c3ccncc3)cc2)cc1)N1CCCC1` (stereo not drawn) [Example 24, 4-[4′-(1-Pyrrolidin-1-ylethyl)-biphenyl-4-yl]-pyridine]: in series [1], the Ki stood at 52 nM.

The molecule `CC(c1ccc(-c2ccc(-c3ccccc3C(=O)N(C(C)C)C(C)C)cc2)cc1)N1CCCC1` (stereo not drawn) [Example 28, 4″-(1-Pyrrolidin-1-ylethyl)-[1,1′;4′,1″]terphenyl-2-carboxylic acid diisopropylamide] had a Ki in series [1] of 13.6 nM.

For the molecule `CC(c1ccc(-c2ccc(-c3ccc(S(C)(=O)=O)cc3)cc2)cc1)N1CCCC1` (stereo not drawn) [Example 35, 1-[1-(4-Methanesulfonyl-[1,1′;4′,1″]terphenyl-4″-yl)-ethyl]-pyrrolidine], in series [1], the affinity, expressed as Ki, was 22.7 nM.

`CC(c1ccc(-c2ccc(-c3ccncc3)cc2)cc1)N(C)C` (stereo not drawn) [Example 39, Dimethyl-[1-(4′-pyridin-4-ylbiphenyl-4-yl)-ethyl]-amine] showed a Ki in series [1] of over 140 nM.

In turn, `C[C@@H](c1ccc(-c2ccc(C3CCNCC3)cc2)cc1)N1CCCC1` [Example 73, (S)-(−)4-[4′-(1-Pyrrolidin-1-ylethyl)-biphenyl-4-yl]-piperidine] displayed a Ki in series [1] of 72.6 nM.

For the molecule `C[C@H](c1ccc(-c2ccc(C3CCN(C)CC3)cc2)cc1)N1CCCC1` [Example 77, (R)-1-Methyl-4-[4′-(1-Pyrrolidin-1-ylethyl)-biphenyl-4-yl]-piperidine], affinity in series [1] was put at a Ki of 24.3 nM. Compared with the last molecule, the Ki is about 3-fold lower.

Consider `CCN1CCC(c2ccc(-c3ccc([C@@H](C)N4CCCC4)cc3)cc2)CC1` [Example 78, (R)-1-Ethyl-4-[4′-(1-pyrrolidin-1-ylethyl)-biphenyl-4-yl]-piperidine], for which the Ki in series [1] was 21.3 nM. The Ki values of the last two molecules are within 1.5-fold of each other.

Molecule `Cc1cc(C2CCCN2C)ccc1-c1ccc(CN2CCCCC2)cc1` (stereo not drawn) [Example 79, 1-[2′-Methyl-4′-(1-methylpyrrolidin-2-yl)-biphenyl-4-ylmethyl]-piperidine] displayed a Ki in series [1] of 13.9 nM.

On to `CC(c1ccc(-c2ccc(-c3cnc(O)nc3)cc2)cc1)N1CCCC1` (stereo not drawn) [Example 90, 5-[4′-(1-Pyrrolidin-1-ylethyl)-biphenyl-4-yl]-pyrimidin-2-ol], for which the Ki in series [1] is 44 nM.

`CC(c1ccc(-c2ccc(-c3cnc(Cl)nc3)cc2)cc1)N1CCCC1` (stereo not drawn) [Example 91, 2-Chloro-5-[4′-(1-pyrrolidin-1-ylethyl)-biphenyl-4-yl]-pyrimidine] registered a Ki in series [1] of 38 nM.

For `COc1ncc(-c2ccc(-c3ccc(C(C)N4CCCC4)cc3)cc2)cn1` (stereo not drawn) [Example 92, 2-Methoxy-5-[4′-(1-pyrrolidin-1-ylethyl)-biphenyl-4-yl]-pyrimidine], affinity in series [1] was put at a Ki of 42 nM.

The molecule `CC(c1ccc(-c2ccc(-c3cnc(N)nc3)cc2)cc1)N1CCCC1` (stereo not drawn) [Example 93, 5-[4′-(1-Pyrrolidin-1-ylethyl)-biphenyl-4-yl]-pyrimidin-2-ylamine] had a Ki in series [1] of 105 nM.

In turn, `CC(c1ccc(-c2ccc(-c3cncnc3)cc2F)cc1)N1CCCC1` (stereo not drawn) [Example 94, 5-[2-Fluoro-4′-(1-pyrrolidin-1-ylethyl)-biphenyl-4-yl]-pyrimidine] gave a Ki in series [1] of 23 nM.

As for `Cc1cc(C2CCCN2C)ccc1-c1ccc(CNCc2ccc(Cl)cc2)cc1` (stereo not drawn) [Example 96, (4-Chlorobenzyl)-[2′-methyl-4′-(1-methylpyrrolidin-2-yl)-biphenyl-4-ylmethyl]-amine], the affinity in series [1], expressed as Ki, was 14.7 nM.
